Patent US20050197364A1, “Amide compounds as ion channel ligands and uses thereof” (priority 2003, published 2005)

Tested on: VR1 receptor
Assay: High throughput calcium imaging assay (Fura2, Flex Station) of VR1 antagonists, pH 5.1 stimulus
Assay type: cell-based
Conditions: 1 uM compound, inhibition of calcium ion influx induced by capsaicin stimulation

SMILES	% Inhibition @ 1 uM	% Inhibition @ 1 uM (1 µM)
O=C(Nc1ccc2c(c1)OCCO2)c1ccc(-c2ncccc2Cl)cc1 [Compound 1]	+ + (compound exhibited 25-50% inhibition of calcium ion influx induced by capsaicin stimulation)	–
COc1cccc(NC(=O)c2ccc(-c3ncccc3Cl)cc2)c1 [Compound 2]	+ (compound exhibited 0-25% inhibition of calcium ion influx induced by capsaicin stimulation)	–
O=C(Nc1ccccc1)c1ccc(-c2ncccc2Cl)cc1 [Compound 3]	+ (compound exhibited 0-25% inhibition of calcium ion influx induced by capsaicin stimulation)	–
O=C(Nc1ccc2[nH]ccc2c1)c1ccc(-c2ncccc2Cl)cc1 [Compound 4]	+ + + + (compound exhibited 75% or greater inhibition of calcium ion influx induced by capsaicin stimulation)	–
COc1ccc(NC(=O)c2ccc(-c3ncccc3Cl)cc2)cc1 [Compound 5]	+ + (compound exhibited 25-50% inhibition of calcium ion influx induced by capsaicin stimulation)	–
O=C(Nc1ccncc1)c1ccc(-c2ncccc2Cl)cc1 [Compound 7]	+ + + + (compound exhibited 75% or greater inhibition of calcium ion influx induced by capsaicin stimulation)	–
O=C(Nc1cccnc1)c1ccc(-c2ncccc2Cl)cc1 [Compound 8]	+ + + + (compound exhibited 75% or greater inhibition of calcium ion influx induced by capsaicin stimulation)	–
O=C(Nc1cc[nH]n1)c1ccc(-c2ncccc2Cl)cc1 [Compound 9]	+ (compound exhibited 0-25% inhibition of calcium ion influx induced by capsaicin stimulation)	–
N#Cc1ccccc1NC(=O)c1ccc(-c2ncccc2Cl)cc1 [Compound 11]	+ (compound exhibited 0-25% inhibition of calcium ion influx induced by capsaicin stimulation)	–
O=C(Nc1cccc(Cl)c1)c1ccc(-c2ncccc2Cl)cc1 [Compound 12]	+ (compound exhibited 0-25% inhibition of calcium ion influx induced by capsaicin stimulation)	–
COc1ccccc1NC(=O)c1ccc(-c2ncccc2Cl)cc1 [Compound 13]	+ + + + (compound exhibited 75% or greater inhibition of calcium ion influx induced by capsaicin stimulation)	–
O=C(Nc1ccccc1Cl)c1ccc(-c2ncccc2Cl)cc1 [Compound 15]	+ (compound exhibited 0-25% inhibition of calcium ion influx induced by capsaicin stimulation)	–
O=C(Nc1ccc(Cl)cc1Cl)c1ccc(-c2ncccc2Cl)cc1 [Compound 16]	+ (compound exhibited 0-25% inhibition of calcium ion influx induced by capsaicin stimulation)	–
COc1ccc(NC(=O)c2ccc(-c3ncccc3Cl)cc2)cc1Cl [Compound 17]	+ (compound exhibited 0-25% inhibition of calcium ion influx induced by capsaicin stimulation)	–
O=C(Nc1ccc(Cl)c(C(F)(F)F)c1)c1ccc(-c2ncccc2Cl)cc1 [Compound 20]	+ + + (compound exhibited 50-75% inhibition of calcium ion influx induced by capsaicin stimulation)	–
O=C(Nc1cccc(Br)c1)c1ccc(-c2ncccc2Cl)cc1 [Compound 21]	+ (compound exhibited 0-25% inhibition of calcium ion influx induced by capsaicin stimulation)	–
N#Cc1cccc(NC(=O)c2ccc(-c3ncccc3Cl)cc2)c1 [Compound 22]	+ (compound exhibited 0-25% inhibition of calcium ion influx induced by capsaicin stimulation)	–
O=C(Nc1ccccc1CCO)c1ccc(-c2ncccc2Cl)cc1 [Compound 23]	+ + + (compound exhibited 50-75% inhibition of calcium ion influx induced by capsaicin stimulation)	–
CC(C)c1ccc(NC(=O)c2ccc(-c3ncccc3Cl)cc2)cc1 [Compound 25]	+ + + + (compound exhibited 75% or greater inhibition of calcium ion influx induced by capsaicin stimulation)	–
CCCCc1ccc(NC(=O)c2ccc(-c3ncccc3Cl)cc2)cc1 [Compound 26]	+ + (compound exhibited 25-50% inhibition of calcium ion influx induced by capsaicin stimulation)	–
O=C(Nc1ccc(C2CCCCC2)cc1)c1ccc(-c2ncccc2Cl)cc1 [Compound 27]	+ + + + (compound exhibited 75% or greater inhibition of calcium ion influx induced by capsaicin stimulation)	–
COc1cc(NC(=O)c2ccc(-c3ncccc3Cl)cc2)cc(C(F)(F)F)c1 [Compound 28]	+ + (compound exhibited 25-50% inhibition of calcium ion influx induced by capsaicin stimulation)	–
O=C(Nc1cccnc1Cl)c1ccc(-c2ncccc2Cl)cc1 [Compound 30]	+ + (compound exhibited 25-50% inhibition of calcium ion influx induced by capsaicin stimulation)	–
O=C(Nc1ccc(Cl)nc1)c1ccc(-c2ncccc2Cl)cc1 [Compound 31]	+ (compound exhibited 0-25% inhibition of calcium ion influx induced by capsaicin stimulation)	–
COc1ccc(NC(=O)c2ccc(-c3ncccc3Cl)cc2)cn1 [Compound 32]	+ (compound exhibited 0-25% inhibition of calcium ion influx induced by capsaicin stimulation)	–
O=C(Nc1ccnc(Cl)c1)c1ccc(-c2ncccc2Cl)cc1 [Compound 33]	+ + + + (compound exhibited 75% or greater inhibition of calcium ion influx induced by capsaicin stimulation)	–

SMILES	% Inhibition @ 1 uM	% Inhibition @ 1 uM (1 µM)
O=C(Nc1ccc2c(c1)OCO2)c1ccc(-c2ncccc2Cl)cc1 [Compound 34]	+ (compound exhibited 0-25% inhibition of calcium ion influx induced by capsaicin stimulation)	–
Cc1cc(NC(=O)c2ccc(-c3ncccc3Cl)cc2)nc(C)n1 [Compound 35]	+ (compound exhibited 0-25% inhibition of calcium ion influx induced by capsaicin stimulation)	–
O=C(Nc1ccc2c(c1)Cc1ccccc1-2)c1ccc(-c2ncccc2Cl)cc1 [Compound 36]	+ + (compound exhibited 25-50% inhibition of calcium ion influx induced by capsaicin stimulation)	–
Cc1cc(C)nc(NC(=O)c2ccc(-c3ncccc3Cl)cc2)c1 [Compound 37]	+ (compound exhibited 0-25% inhibition of calcium ion influx induced by capsaicin stimulation)	–
O=C(Nc1nccs1)c1ccc(-c2ncccc2Cl)cc1 [Compound 38]	+ (compound exhibited 0-25% inhibition of calcium ion influx induced by capsaicin stimulation)	–
CC(C)(CO)NC(=O)c1ccc(-c2ncccc2Cl)cc1 [Compound 41]	+ (compound exhibited 0-25% inhibition of calcium ion influx induced by capsaicin stimulation)	–
CN(C)c1cccc(NC(=O)c2ccc(-c3ncccc3Cl)cc2)c1 [Compound 43]	+ + + + (compound exhibited 75% or greater inhibition of calcium ion influx induced by capsaicin stimulation)	–
CCN(CC)c1ccc(NC(=O)c2ccc(-c3ncccc3Cl)cc2)cc1 [Compound 44]	+ + + + (compound exhibited 75% or greater inhibition of calcium ion influx induced by capsaicin stimulation)	–
O=C(Nc1ccc(N2CCNCC2)cc1)c1ccc(-c2ncccc2Cl)cc1 [Compound 45]	+ (compound exhibited 0-25% inhibition of calcium ion influx induced by capsaicin stimulation)	–
Cc1cccnc1NC(=O)c1ccc(-c2ncccc2Cl)cc1 [Compound 48]	+ + (compound exhibited 25-50% inhibition of calcium ion influx induced by capsaicin stimulation)	–
O=C(Nc1ccc(Br)cn1)c1ccc(-c2ncccc2Cl)cc1 [Compound 49]	+ + (compound exhibited 25-50% inhibition of calcium ion influx induced by capsaicin stimulation)	–
O=C(Nc1ccc(C(F)(F)F)cn1)c1ccc(-c2ncccc2Cl)cc1 [Compound 50]	+ + (compound exhibited 25-50% inhibition of calcium ion influx induced by capsaicin stimulation)	–
CCC(C)(C)NC(=O)c1ccc(-c2ncccc2Cl)cc1 [Compound 53]	+ (compound exhibited 0-25% inhibition of calcium ion influx induced by capsaicin stimulation)	–
O=C(Nc1ccc2ccccc2c1)c1ccc(-c2ncccc2Cl)cc1 [Compound 54]	–	+ (compound exhibited 0-25% inhibition of calcium ion influx induced by capsaicin stimulation)
CCC1c2ccccc2-c2cc(NC(=O)c3ccc(-c4ncccc4Cl)cc3)ccc21 (stereo not shown) [Compound 55]	+ + (compound exhibited 25-50% inhibition of calcium ion influx induced by capsaicin stimulation)	–
O=C(Nc1ccc([N+](=O)[O-])cc1)c1ccc(-c2ncccc2Cl)cc1 [Compound 56]	+ + + + (compound exhibited 75% or greater inhibition of calcium ion influx induced by capsaicin stimulation)	–
O=C(Nc1ccc2ccccc2c1)c1ccc(-c2ncccc2Cl)cc1 [Compound 57]	–	+ + + + (compound exhibited 75% or greater inhibition of calcium ion influx induced by capsaicin stimulation)
O=C(Nc1ccncc1)c1ccc(-c2ncccc2Cl)cc1F [Compound 62]	+ (compound exhibited 0-25% inhibition of calcium ion influx induced by capsaicin stimulation)	–
O=C(Nc1cccnc1)c1ccc(-c2ncccc2Cl)cc1F [Compound 63]	+ (compound exhibited 0-25% inhibition of calcium ion influx induced by capsaicin stimulation)	–
CC(C)(NC(=O)c1ccc(-c2ncccc2Cl)cc1F)c1ccccc1 [Compound 66]	+ (compound exhibited 0-25% inhibition of calcium ion influx induced by capsaicin stimulation)	–
O=C(Nc1ccccc1O)c1ccc(-c2ncccc2Cl)cc1F [Compound 67]	+ (compound exhibited 0-25% inhibition of calcium ion influx induced by capsaicin stimulation)	–
CC(C)c1cccc(NC(=O)c2ccc(-c3ncccc3Cl)cc2F)c1 [Compound 69]	+ (compound exhibited 0-25% inhibition of calcium ion influx induced by capsaicin stimulation)	–
O=C(Nc1cccc(Cl)c1)c1ccc(-c2ncccc2Cl)cc1F [Compound 71]	+ (compound exhibited 0-25% inhibition of calcium ion influx induced by capsaicin stimulation)	–
COc1cccc(NC(=O)c2ccc(-c3ncccc3Cl)cc2F)c1 [Compound 74]	+ (compound exhibited 0-25% inhibition of calcium ion influx induced by capsaicin stimulation)	–
COc1ccc(NC(=O)c2ccc(-c3ncccc3Cl)cc2F)cc1Cl [Compound 79]	+ + (compound exhibited 25-50% inhibition of calcium ion influx induced by capsaicin stimulation)	–
O=C(Nc1cccc(Br)c1)c1ccc(-c2ncccc2Cl)cc1F [Compound 83]	+ + + + (compound exhibited 75% or greater inhibition of calcium ion influx induced by capsaicin stimulation)	–
